pIC50: −log10 of the molar value.

The subject of the first experiment is MV4-11 cells. The experiment can be described thus: MV4-11 Cell Cytotoxicity Assay (CellTiter-Blue, 72 h). As to conditions: Homo sapiens, MV4-11; MV-4-11 cells. It is filed as cell-based, human. Here is the method:
In some embodiments, the potency of the STAT5 inhibitors are evaluated by an in vitro assay such as MV4-11 Cell Cytotoxicity Assay. […] 10,000 cells were plated per well in 96-well flat-bottom sterile culture plates with low-evaporation lids. After 24 h, inhibitors and a vehicle control (0.5% DMSO) were added and the cells were incubated for 72 h at 37° C. in 5% CO2. Inhibitors were examined in triplicate at a maximal concentration of 50 μM, followed by 1:2 dilutions in subsequent wells (25, 12.5, 6.25, 3.125, 1.5625, 0.78125, 0.390625, 0.195313 and 0.097656 μM). After 72 h, the wells were treated with CellTiter-Blue® (20 μL/well), and the plates were incubated using standard cell culture conditions for 1 hour. Fluorescence was measured at 560/590 nm.
A general note: Alamar Blue is a resazurin reagent that responds to reducing activity.
As to `COc1cc(C(=O)O)ccc1N(Cc1cc(C2CC2)cc(C(C)(C)C)c1)C(=O)CN(Cc1ccc(F)nc1Cl)S(=O)(=O)c1c(F)c(F)c(F)c(F)c1F` [Compound 1096, 4-(N-(3-(tert-butyl)-5-cyclopropylbenzyl)-2-(N-((2-chloro-6-fluoropyridin-3-yl)methyl)-(2,3,4,5,6-pentafluorophenyl)sulfon-amido)acetamido)-3-methoxybenzoic acid], the pIC50 was 6.50 to 11.00.

In the case of `CN(C)CCOc1cc(C(=O)O)ccc1N(Cc1cc(C2CC2)cc(C(C)(C)C)c1)C(=O)CN(Cc1ccccc1F)S(=O)(=O)c1c(F)c(F)c(F)c(F)c1F` [Compound 1101, 4-(N-(3-(tert-butyl)-5-cyclopropylbenzyl)-2-(N-(2-fluorobenzyl)-(2,3,4,5,6-pentafluoro-phenyl)sulfonamido)taceamido)-3-(2-(dimethylamino)ethoxy) benzoic acid], the pIC50 is 4.00 to 5.50.

`CN(C)c1cc(C(=O)O)ccc1N(Cc1cc(C2CC2)cc(C(C)(C)C)c1)C(=O)CN(Cc1c(F)c(F)c(F)c(F)c1F)S(=O)(=O)c1c(F)c(F)c(F)c(F)c1F` [Compound 1106, 4-(N-(3-(tert-butyl)-5-cyclopropylbenzyl)-2-(N-((perfluorophenyl)methyl)-(2,3,4,5,6-pentafluorophenyl)sulfonamido)acetamido)-3-(dimethylamino)benzoic acid] had a pIC50 of 6.50 to 11.00.

As for `CN(C)c1cc(C(=O)O)c(F)cc1N(Cc1cc(C2CC2)cc(C(C)(C)C)c1)C(=O)CN(Cc1c(F)c(F)c(F)c(F)c1F)S(=O)(=O)c1c(F)c(F)c(F)c(F)c1F` [Compound 1107, 4-(N-(3-(tert-butyl)-5-cyclopropylbenzyl)-2-(N-((perfluorophenyl)methyl)-(2,3,4,5,6-pentafluoro-phenyl)sulfonamido)acetamido)-5-(dimethylamino)-2-fluorobenzoic acid], the pIC50 is 6.50 to 11.00.

`CC(C)(C)c1cc(CN(C(=O)CN(Cc2ccccc2C(F)(F)F)S(=O)(=O)c2c(F)c(F)c(F)c(F)c2F)c2ccc(C(=O)O)cc2C2CC2)cc(C2CC2)c1` [Compound 1112, 4-(N-(3-(tert-butyl)-5-cyclopropylbenzyl)-2-(N-(2-(trifluoromethyl)benzyl)-(2,3,4,5,6-pentafluoro-phenyl)sulfonamido)acetamido)-3-cyclopropylbenzoic acid] gave a pIC50 of 6.50 to 11.00.

As to `CN(C)c1cc(C(=O)O)c(F)cc1N(Cc1cc(C2CC2)cc(C(C)(C)C)c1)C(=O)CN(Cc1ccccc1C(F)(F)F)S(=O)(=O)c1c(F)c(F)c(F)c(F)c1F` [Compound 1113, 4-(N-(3-(tert-butyl)-5-cyclopropylbenzyl)-2-(N-(2-(trifluoromethyl)benzyl)-(2,3,4,5,6-pentafluoro-phenyl)sulfonamido)acetamido)-5-(dimethylamino)-2-fluorobenzoic acid], the pIC50 is 6.00 to 6.50.

Compound `COc1cc(C(N)=O)ccc1N(Cc1cc(C2CC2)cc(C(C)(C)C)c1)C(=O)CN(Cc1ccccc1F)S(=O)(=O)c1c(F)c(F)c(F)c(F)c1F` [Compound 1114, 4-(N-(3-(tert-butyl)-5-cyclopropylbenzyl)-2-(N-(2-fluorobenzyl)-(2,3,4,5,6-pentafluoro-phenyl)sulfonamido)acetamido)-3-methoxybenzamide] gave a pIC50 of 6.00 to 6.50.

On to `CN(C)c1ccc(C(=O)O)cc1N(Cc1cc(C2CC2)cc(C(C)(C)C)c1)C(=O)CN(Cc1ccccc1F)S(=O)(=O)c1c(F)c(F)c(F)c(F)c1F` [Compound 1120, 3-(N-(3-(tert-butyl)-5-cyclopropylbenzyl)-2-(N-(2-fluorobenzyl)-(2,3,4,5,6-pentafluoro-phenyl)sulfonamido)acetamido)-4-(dimethylamino) benzoic acid], for which the pIC50 was 6.00 to 6.50.

Compound `CN(C)c1cc(C(=O)O)ccc1N(Cc1cc(C2CC2)cc(C(C)(C)C)c1)C(=O)CN(Cc1c(F)cc(F)cc1F)S(=O)(=O)c1c(F)c(F)c(F)c(F)c1F` [Compound 1125, 4-(N-(3-(tert-butyl)-5 - cyclopropylbenzyl)-2-(N-(2,4,6-trifluorobenzyl)-(2,3,4,5,6-pentafluoro-phenyl)sulfonamido)acetamido)-3-(dimethylamino) benzoic acid] showed a pIC50 of 6.00 to 6.50.

For the compound `O=C(O)c1ccc(N(Cc2ccccn2)C(=O)CN(Cc2ccccc2C(F)(F)F)S(=O)(=O)c2c(F)c(F)c(F)c(F)c2F)c(OC2CC2)c1` [Compound 1127, 3-cyclopropoxy-4-(2-(N-(2-(trifluoromethyl)benzyl)-(2,3,4,5,6-pentafluoro-phenyl)sulfonamido)-N-(pyridin-2-ylmethyl)acetamido) benzoic acid], the pIC50 is 5.50 to 6.00.

Consider `COc1cc(C(=O)O)ccc1N(Cc1cc(C2CC2)cc(C(C)(C)C)c1)C(=O)CN(Cc1cncc(C(F)(F)F)c1)S(=O)(=O)c1c(F)c(F)c(F)c(F)c1F` [Compound 1131, 4-(N-(3-(tert-butyl)-5-cyclopropylbenzyl)-2-(N-((5-(trifluoromethyl)pyridin-3-yl)methyl)-(2,3,4,5,6-pentafluoro-phenyl)sulfonamido)acetamido)-3-methoxybenzoic acid], for which the pIC50 is 6.00 to 6.50.

`CC(C)(C)c1cc(CN(C(=O)CN(Cc2cccc(C(F)(F)F)c2)S(=O)(=O)c2c(F)c(F)c(F)c(F)c2F)c2ccc(C(=O)O)cc2OC2CC2)cc(C2CC2)c1` [Compound 1135, 4-(N-(3-(tert-butyl)-5-cyclopropylbenzyl)-2-(N-(3-(trifluoromethyl)benzyl)-(2,3,4,5,6-pentafluoro-phenyl)sulfonamido)acetamido)-3-cyclopropoxybenzoic acid] had a pIC50 of 6.00 to 6.50.

For `O=C(O)c1ccc(N(Cc2cccnn2)C(=O)CN(Cc2ccccc2C(F)(F)F)S(=O)(=O)c2c(F)c(F)c(F)c(F)c2F)c(OC2CC2)c1` [Compound 1138, 3-cyclopropoxy-4-(2-(N-(2-(trifluoromethyl)benzyl)-(2,3,4,5,6-pentafluoro-phenyl)sulfonamido)-N-(pyridazin-3-ylmethyl)acetamido) benzoic acid], the pIC50 was 4.00 to 5.50.

`CC(C)(C)c1cc(CN(C(=O)CN(Cc2cccc(C#N)c2)S(=O)(=O)c2c(F)c(F)c(F)c(F)c2F)c2ccc(C(=O)O)cc2OC2CC2)cc(C2CC2)c1` [Compound 1139, 4-(N-(3-(tert-butyl)-5-cyclopropylbenzyl)-2-(N-(3-cyanobenzyl)-(2,3,4,5,6-pentafluorophenyl)sulfon-amido)acetamido)-3-cyclopropoxybenzoic acid] had a pIC50 of 6.00 to 6.50.

`CC(C)(C)c1cc(CN(C(=O)CN(Cc2ccc(C#N)cc2)S(=O)(=O)c2c(F)c(F)c(F)c(F)c2F)c2ccc(C(=O)O)cc2OC2CC2)cc(C2CC2)c1` [Compound 1140, 4-(N-(3-(tert-butyl)-5-cyclopropylbenzyl)-2-(N-(4-cyanobenzyl)-(2,3,4,5,6-pentafluorophenyl)sulfon-amido)acetamido)-3-cyclopropoxybenzoic acid]: the pIC50 was 6.00 to 6.50.

As for `COc1cc(C(=O)O)ccc1N(Cc1cccc(C(C)(C)C)c1)C(=O)CN(C12CC(C1)C2)S(=O)(=O)c1c(F)c(F)c(F)c(F)c1F` [Compound 1144, 4-(2-(N-(bicyclo[1.1.1]pentan-1-yl)-(2,3,4,5,6-pentafluorophenyl)sulfon-amido)-N-(3-(tert-butyl)benzyl)acetamido)-3-methoxybenzoic acid], the pIC50 is 6.00 to 6.50.

In turn, `CC(C)(C)c1cc(CN(C(=O)CN(Cc2ccccc2F)S(=O)(=O)c2c(F)c(F)c(F)c(F)c2F)c2ccc(C#N)c(F)c2)cc(C2CC2)c1` [Compound 1151, N-(3-(tert-butyl)-5-cyclopropylbenzyl)-N-(4-cyano-3-fluorophenyl)-2-(N-(2-fluorobenzyl)-(2,3,4,5,6-pentafluoro-phenyl)sulfonamido) acetamide] gave a pIC50 of 4.00 to 5.50.

`COc1cc(C(=O)O)ccc1N(Cc1nc2ccccc2n1C)C(=O)CN(Cc1cnccc1C(F)(F)F)S(=O)(=O)c1c(F)c(F)c(F)c(F)c1F` [Compound 1158, 3-methoxy-4-(N-((1-methyl-1H-benzo[d]imidazol-2-yl)methyl)-2-(N-((4-(trifluoromethyl)pyridin-3-yl)methyl)-(2,3,4,5,6-pentafluoro-phenyl)sulfonamido)acetamido)benzoic acid] showed a pIC50 of 4.00 to 5.50.

Take `COc1cc(C(=O)O)ccc1N(Cc1cc(C2CC2)cc(C(C)(C)C)c1)C(=O)CN(Cc1ccc(Cl)cc1F)S(=O)(=O)c1c(F)c(F)c(F)c(F)c1F` [Compound 1175, 4-(N-(3-(tert-butyl)-5-cyclopropylbenzyl)-2-(N-(4-chloro-2-fluorobenzyl)-(2,3,4,5,6-pentafluorophenyl)sulfon-amido)acetamido)-3-methoxybenzoic acid]: the pIC50 was 6.00 to 6.50.

In the case of `Cc1cc(C(=O)O)cc(C)c1N(Cc1cc(C2CC2)cc(C(C)(C)C)c1)C(=O)CN(Cc1cnccc1C(F)(F)F)S(=O)(=O)c1c(F)c(F)c(F)c(F)c1F` [Compound 1181, 4-(N-(3-(tert-butyl)-5-cyclopropylbenzyl)-2-(N-((4-(trifluoromethyl)pyridin-3-yl)methyl)-(2,3,4,5,6-pentafluoro-phenyl)sulfonamido)acetamido)-3,5-dimethylbenzoic acid], the pIC50 is 6.00 to 6.50.

Staying with this experiment, now noted: MV-4-11 cells.
The compound `COc1cc(C(=O)O)ccc1N(Cc1cc(C2CC2)cc(C2CC2)c1)C(=O)CN(Cc1ncc(F)cc1Cl)S(=O)(=O)c1c(F)c(F)c(F)c(F)c1F` [Compound 1176, 4-(2-(N-((3-chloro-5-fluoropyridin-2-yl)methyl)-(2,3,4,5,6-pentafluorophenyl)sulfon-amido)-N-(3,5-dicyclopropylbenzyl)acetamido)-3-methoxybenzoic acid] gave a negative logarithm of the IC50 (pIC50) of 6.50 to 11.00.

In general, pIC50 refers to the negative decadic logarithm of the IC50, by convention in mol/L. A low value points to a high IC50.

The record behind these values is patent US20230159445A1, “STAT INHIBITORY COMPOUNDS AND COMPOSITIONS” (JANPIX LIMITED, priority 2020, published 2023).
